Measured values as given in EP4768487A1, “FUSED LACTAM RING COMPOUND AND USE THEREOF” (Chengdu Zenitar Biomedical Technology Co., Ltd., priority 2023, dated 2025).

Key:
[1] = system: BRCA-mutated MDA-MB-436 cells; assay: Anti-proliferative activity against cells (CCK8): MDA-MB-436; assay type: cell-based; details: Homo sapiens, 72 h + 96 h culture
PARP-5A = molecular target: T1, PARP-5A (Homo sapiens, UniProt O95271); assay: biochemical
T1 sequence (O95271 1-1327): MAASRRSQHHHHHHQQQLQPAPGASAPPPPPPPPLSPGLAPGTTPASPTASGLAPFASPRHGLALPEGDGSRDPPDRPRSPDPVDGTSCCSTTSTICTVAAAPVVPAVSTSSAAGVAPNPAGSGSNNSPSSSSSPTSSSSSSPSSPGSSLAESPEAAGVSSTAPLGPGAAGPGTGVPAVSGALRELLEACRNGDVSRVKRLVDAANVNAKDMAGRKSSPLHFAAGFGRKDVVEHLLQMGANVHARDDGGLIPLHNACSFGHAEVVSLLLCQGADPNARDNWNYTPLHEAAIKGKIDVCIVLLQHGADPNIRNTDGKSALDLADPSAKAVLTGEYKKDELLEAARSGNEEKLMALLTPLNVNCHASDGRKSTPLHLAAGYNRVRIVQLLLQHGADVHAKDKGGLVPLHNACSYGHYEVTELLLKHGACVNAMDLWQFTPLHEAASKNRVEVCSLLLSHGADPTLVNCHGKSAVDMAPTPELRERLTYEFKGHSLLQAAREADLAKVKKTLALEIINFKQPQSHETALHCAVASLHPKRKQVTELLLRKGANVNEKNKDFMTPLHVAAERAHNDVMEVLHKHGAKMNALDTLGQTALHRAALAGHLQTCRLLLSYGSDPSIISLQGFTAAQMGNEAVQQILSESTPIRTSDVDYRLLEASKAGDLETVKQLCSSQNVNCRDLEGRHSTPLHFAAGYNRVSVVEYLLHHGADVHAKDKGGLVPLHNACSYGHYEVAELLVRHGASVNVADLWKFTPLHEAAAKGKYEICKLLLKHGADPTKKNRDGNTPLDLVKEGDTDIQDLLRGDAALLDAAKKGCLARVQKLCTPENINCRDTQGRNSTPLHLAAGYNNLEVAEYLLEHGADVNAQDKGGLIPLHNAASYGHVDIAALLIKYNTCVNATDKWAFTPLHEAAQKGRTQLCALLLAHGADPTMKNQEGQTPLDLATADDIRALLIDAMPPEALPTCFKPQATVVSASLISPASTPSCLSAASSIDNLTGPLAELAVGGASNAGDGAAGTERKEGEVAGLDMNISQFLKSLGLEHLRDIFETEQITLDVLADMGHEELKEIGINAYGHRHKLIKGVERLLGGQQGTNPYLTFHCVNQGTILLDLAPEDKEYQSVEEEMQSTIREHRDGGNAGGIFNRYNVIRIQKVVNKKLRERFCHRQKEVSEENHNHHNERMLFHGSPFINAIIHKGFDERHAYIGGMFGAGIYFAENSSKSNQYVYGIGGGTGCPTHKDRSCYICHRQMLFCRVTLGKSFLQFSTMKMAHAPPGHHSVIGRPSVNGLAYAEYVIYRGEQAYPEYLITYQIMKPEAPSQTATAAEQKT

PARP-7 = molecular target: T2, PARP-7 (Homo sapiens, UniProt Q7Z3E1); assay: Assay for enzymatic selectivity for PARP family: PARP-7
T2 sequence (Q7Z3E1 1-657): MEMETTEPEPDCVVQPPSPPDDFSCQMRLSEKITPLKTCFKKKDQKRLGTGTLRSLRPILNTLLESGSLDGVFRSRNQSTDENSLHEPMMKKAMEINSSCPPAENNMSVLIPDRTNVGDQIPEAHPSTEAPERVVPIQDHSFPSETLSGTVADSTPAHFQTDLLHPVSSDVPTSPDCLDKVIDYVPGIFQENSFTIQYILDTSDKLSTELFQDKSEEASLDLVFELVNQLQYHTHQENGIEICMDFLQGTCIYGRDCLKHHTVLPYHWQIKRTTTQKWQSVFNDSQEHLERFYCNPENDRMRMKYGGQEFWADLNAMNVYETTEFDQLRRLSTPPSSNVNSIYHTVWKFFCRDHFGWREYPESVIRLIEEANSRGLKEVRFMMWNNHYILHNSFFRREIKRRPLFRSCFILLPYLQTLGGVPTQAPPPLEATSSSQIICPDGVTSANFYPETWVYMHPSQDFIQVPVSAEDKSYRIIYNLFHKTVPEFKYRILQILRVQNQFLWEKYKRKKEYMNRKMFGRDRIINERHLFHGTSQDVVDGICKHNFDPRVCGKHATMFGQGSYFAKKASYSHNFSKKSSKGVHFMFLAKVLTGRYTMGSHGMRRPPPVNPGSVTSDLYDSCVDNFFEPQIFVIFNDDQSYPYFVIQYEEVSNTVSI

PARP-12 = molecular target: T3, PARP-12 (Homo sapiens, UniProt Q9H0J9); assay: Assay for enzymatic selectivity for PARP family: PARP-12
T3 sequence (Q9H0J9 1-701): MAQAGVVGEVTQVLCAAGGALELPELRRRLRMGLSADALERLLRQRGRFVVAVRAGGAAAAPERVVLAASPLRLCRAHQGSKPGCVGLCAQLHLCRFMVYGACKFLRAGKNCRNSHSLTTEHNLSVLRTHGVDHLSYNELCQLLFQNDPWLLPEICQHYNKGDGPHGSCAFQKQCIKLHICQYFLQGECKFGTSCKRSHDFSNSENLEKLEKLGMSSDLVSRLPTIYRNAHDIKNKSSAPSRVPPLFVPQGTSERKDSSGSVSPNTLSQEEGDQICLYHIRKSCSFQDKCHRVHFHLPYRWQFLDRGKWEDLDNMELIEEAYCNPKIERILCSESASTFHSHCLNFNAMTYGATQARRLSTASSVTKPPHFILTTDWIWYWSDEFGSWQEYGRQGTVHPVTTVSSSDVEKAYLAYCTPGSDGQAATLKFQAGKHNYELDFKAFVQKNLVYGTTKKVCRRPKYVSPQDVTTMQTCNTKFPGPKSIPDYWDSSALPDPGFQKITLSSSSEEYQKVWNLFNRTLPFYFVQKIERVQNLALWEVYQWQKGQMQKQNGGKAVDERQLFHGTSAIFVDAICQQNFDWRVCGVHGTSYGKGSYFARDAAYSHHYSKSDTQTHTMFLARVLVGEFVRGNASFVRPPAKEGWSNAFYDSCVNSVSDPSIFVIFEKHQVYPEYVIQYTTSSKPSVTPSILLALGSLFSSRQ

IC50 [1]	SMILES	IC50 (PARP-5A)	IC50 (PARP-7)	IC50 (PARP-12)
0.25 nM	CCc1cc2c([nH]c1=O)CC(CN1CCN(c3ccc(C(=O)NC)nc3F)CC1)OC2 (centres unmarked) [Compound 2, 5-(4-((3-Ethyl-2-oxo-1,5,7,8-tetrahydro-2H-pyrano[4,3-b]pyridin-7-yl)methyl)piperazin-1-yl)-6-fluoro-N-methyl picolinamide]	975 nM	> 10 µM	1990 nM
	CNC(=O)c1ccc(N2CCN(C[C@H]3CCc4nc(C)c(=O)[nH]c4C3)CC2)c(F)n1 [Example 45, (S)-6-Fluoro-N-methyl-5-(4-((2-methyl-3-oxo-3,4,5,6,7,8-hexahydroquinoxaline-6-yl)methyl)piperazin-1-yl)picolinamide]	1930 nM	5.99 µM	862 nM
7 nM	CNC(=O)c1ccc(N2CCN(CC3Cc4[nH]c(=O)c(C)cc4CO3)CC2)c(Cl)n1 (centres unmarked) [Example 74, 6-Chloro-N-methyl-5-(4-((3-methyl-2-oxo-1,5,7,8-tetrahydro-2H-pyrano[4,3-b]pyridin-7-yl)methyl)piperazin-1-yl)picolinamide]			
